Experiments:
Type in all cases: functional, organism-based
[1] = target: Multidrug resistance protein 1a (Rattus norvegicus) (UniProt Q6PSM0); assay: (§1) TP_TRANSPORTER: Western in vivo, liver of Wistar rat
[2] = target: T1, ATP-binding cassette sub-family C member 2 (Rattus norvegicus, UniProt Q63120); assay: (§2) TP_TRANSPORTER: RT-PCR in vivo, liver of Wistar rat
[3] = target: T2, Multidrug resistance-associated protein 1 (Rattus norvegicus, UniProt Q8CG09); assay: as §2
Bile salt export pump [4] = target: T3, Bile salt export pump (Rattus norvegicus, UniProt O70127); assay: as §2
T3 sequence (O70127 whole entry): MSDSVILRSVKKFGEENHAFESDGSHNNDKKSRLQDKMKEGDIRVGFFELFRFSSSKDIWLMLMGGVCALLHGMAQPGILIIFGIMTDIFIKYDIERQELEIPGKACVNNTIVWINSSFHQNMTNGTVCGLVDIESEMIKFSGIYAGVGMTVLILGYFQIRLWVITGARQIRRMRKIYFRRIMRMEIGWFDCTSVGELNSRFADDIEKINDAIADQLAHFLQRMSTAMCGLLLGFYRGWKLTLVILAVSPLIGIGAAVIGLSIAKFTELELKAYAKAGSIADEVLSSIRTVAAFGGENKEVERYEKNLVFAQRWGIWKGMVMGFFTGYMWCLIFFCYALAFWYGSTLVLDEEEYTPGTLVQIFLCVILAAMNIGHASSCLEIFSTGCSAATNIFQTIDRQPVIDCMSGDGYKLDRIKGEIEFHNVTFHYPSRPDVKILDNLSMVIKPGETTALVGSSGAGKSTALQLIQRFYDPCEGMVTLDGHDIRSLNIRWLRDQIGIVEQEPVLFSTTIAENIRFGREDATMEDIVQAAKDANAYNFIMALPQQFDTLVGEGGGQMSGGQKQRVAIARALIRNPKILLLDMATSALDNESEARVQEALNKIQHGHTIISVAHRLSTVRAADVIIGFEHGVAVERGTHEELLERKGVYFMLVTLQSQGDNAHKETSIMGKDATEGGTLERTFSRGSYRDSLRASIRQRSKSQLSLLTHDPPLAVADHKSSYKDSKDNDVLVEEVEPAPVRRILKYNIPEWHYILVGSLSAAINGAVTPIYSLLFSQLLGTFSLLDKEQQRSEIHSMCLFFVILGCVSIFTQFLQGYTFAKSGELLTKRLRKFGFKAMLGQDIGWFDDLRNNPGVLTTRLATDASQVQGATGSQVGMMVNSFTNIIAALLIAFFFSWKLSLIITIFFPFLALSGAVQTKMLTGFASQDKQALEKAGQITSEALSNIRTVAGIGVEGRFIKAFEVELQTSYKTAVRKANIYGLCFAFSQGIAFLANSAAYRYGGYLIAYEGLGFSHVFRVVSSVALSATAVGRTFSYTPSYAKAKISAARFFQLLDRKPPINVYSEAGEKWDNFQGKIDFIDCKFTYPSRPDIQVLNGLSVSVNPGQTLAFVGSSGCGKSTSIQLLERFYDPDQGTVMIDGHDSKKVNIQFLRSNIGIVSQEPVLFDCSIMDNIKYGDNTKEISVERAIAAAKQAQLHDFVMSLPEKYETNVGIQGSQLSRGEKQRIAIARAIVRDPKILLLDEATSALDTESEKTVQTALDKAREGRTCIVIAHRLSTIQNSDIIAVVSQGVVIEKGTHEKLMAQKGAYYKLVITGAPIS

[5] = target: ATP-dependent translocase ABCB1 (Rattus norvegicus, UniProt P43245); assay: as §2
[6] = target: T1, ATP-binding cassette sub-family C member 2; assay: as §1
[7] = target: T2, Multidrug resistance-associated protein 1; assay: as §1
Bile salt export pump [8] = target: T3, Bile salt export pump; assay: as §1

T2 sequence (Q8CG09 whole entry): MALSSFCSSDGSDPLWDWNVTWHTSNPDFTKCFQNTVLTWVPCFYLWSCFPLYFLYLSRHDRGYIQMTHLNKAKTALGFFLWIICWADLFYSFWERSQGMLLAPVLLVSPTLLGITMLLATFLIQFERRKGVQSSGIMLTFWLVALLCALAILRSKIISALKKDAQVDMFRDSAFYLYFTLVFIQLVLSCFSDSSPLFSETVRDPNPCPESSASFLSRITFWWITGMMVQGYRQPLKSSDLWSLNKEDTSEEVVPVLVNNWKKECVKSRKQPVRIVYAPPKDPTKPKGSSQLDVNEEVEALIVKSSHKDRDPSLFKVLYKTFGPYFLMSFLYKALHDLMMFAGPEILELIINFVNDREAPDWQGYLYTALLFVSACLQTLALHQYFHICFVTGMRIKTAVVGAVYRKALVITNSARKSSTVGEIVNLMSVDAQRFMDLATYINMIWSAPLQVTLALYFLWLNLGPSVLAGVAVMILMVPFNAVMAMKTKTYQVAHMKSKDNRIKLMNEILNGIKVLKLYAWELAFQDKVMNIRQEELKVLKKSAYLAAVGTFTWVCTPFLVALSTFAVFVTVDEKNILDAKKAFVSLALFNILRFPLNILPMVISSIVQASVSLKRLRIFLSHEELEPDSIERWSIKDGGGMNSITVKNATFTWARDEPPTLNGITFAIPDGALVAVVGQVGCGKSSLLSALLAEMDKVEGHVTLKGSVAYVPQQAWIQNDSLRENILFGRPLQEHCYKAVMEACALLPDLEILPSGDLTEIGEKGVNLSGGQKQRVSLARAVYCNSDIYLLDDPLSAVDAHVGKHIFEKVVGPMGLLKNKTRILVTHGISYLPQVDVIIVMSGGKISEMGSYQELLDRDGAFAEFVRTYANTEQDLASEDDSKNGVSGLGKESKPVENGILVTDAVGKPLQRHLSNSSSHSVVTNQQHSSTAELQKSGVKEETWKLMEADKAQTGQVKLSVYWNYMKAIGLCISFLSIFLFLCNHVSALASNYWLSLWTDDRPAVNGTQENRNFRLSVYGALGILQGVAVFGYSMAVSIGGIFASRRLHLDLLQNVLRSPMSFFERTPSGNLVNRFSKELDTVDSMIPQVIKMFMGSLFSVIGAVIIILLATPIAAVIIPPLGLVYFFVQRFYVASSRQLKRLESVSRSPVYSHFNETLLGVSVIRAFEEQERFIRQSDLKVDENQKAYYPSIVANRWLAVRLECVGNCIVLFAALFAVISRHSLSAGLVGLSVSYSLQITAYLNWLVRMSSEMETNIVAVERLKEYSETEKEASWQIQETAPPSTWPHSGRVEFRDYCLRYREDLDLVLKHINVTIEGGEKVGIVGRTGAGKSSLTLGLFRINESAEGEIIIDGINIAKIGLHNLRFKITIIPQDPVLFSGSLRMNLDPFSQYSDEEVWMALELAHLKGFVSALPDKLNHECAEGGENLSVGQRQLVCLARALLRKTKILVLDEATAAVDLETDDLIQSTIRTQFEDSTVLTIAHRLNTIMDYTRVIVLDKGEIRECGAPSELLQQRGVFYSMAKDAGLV
T1 sequence (Q63120 whole entry): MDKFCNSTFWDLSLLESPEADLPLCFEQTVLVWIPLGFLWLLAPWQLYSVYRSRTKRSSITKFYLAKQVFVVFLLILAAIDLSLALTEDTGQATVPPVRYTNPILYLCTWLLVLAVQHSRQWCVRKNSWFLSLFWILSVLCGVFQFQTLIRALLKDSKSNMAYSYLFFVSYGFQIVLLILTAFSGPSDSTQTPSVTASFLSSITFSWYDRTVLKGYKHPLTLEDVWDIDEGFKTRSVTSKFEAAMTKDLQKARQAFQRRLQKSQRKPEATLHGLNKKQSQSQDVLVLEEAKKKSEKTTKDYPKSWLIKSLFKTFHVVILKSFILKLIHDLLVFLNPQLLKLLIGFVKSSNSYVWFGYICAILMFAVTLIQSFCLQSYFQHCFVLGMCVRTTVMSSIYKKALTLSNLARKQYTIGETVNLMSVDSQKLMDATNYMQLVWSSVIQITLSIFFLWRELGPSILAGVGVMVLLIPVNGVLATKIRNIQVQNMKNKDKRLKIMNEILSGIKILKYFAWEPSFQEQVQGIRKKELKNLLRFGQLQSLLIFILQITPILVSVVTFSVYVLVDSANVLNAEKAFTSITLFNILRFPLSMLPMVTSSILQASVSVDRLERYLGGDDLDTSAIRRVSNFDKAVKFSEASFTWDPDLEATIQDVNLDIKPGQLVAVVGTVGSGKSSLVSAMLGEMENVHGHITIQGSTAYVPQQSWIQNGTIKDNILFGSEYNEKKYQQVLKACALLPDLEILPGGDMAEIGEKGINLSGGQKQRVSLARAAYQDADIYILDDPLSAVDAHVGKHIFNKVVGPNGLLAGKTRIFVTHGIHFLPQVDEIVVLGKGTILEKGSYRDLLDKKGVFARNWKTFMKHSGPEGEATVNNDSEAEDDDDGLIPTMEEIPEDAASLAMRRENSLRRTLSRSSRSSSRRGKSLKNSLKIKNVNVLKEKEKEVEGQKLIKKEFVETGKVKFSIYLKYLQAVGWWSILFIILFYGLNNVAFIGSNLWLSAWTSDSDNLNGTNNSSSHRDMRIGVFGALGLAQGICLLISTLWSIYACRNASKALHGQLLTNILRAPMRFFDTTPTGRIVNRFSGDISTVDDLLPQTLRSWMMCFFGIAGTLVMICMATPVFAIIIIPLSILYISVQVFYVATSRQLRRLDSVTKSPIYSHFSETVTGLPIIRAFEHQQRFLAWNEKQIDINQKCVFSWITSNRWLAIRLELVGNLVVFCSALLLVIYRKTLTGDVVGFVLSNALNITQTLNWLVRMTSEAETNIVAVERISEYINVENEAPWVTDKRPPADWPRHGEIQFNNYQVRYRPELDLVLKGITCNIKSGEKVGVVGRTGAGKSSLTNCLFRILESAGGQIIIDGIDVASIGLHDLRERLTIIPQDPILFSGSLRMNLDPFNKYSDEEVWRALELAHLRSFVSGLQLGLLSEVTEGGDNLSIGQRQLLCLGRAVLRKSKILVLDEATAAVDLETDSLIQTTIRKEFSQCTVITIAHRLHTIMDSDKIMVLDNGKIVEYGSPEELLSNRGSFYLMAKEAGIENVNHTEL
Multidrug resistance protein 1a (Rattus norvegicus), sequence (Q6PSM0 as listed by the source): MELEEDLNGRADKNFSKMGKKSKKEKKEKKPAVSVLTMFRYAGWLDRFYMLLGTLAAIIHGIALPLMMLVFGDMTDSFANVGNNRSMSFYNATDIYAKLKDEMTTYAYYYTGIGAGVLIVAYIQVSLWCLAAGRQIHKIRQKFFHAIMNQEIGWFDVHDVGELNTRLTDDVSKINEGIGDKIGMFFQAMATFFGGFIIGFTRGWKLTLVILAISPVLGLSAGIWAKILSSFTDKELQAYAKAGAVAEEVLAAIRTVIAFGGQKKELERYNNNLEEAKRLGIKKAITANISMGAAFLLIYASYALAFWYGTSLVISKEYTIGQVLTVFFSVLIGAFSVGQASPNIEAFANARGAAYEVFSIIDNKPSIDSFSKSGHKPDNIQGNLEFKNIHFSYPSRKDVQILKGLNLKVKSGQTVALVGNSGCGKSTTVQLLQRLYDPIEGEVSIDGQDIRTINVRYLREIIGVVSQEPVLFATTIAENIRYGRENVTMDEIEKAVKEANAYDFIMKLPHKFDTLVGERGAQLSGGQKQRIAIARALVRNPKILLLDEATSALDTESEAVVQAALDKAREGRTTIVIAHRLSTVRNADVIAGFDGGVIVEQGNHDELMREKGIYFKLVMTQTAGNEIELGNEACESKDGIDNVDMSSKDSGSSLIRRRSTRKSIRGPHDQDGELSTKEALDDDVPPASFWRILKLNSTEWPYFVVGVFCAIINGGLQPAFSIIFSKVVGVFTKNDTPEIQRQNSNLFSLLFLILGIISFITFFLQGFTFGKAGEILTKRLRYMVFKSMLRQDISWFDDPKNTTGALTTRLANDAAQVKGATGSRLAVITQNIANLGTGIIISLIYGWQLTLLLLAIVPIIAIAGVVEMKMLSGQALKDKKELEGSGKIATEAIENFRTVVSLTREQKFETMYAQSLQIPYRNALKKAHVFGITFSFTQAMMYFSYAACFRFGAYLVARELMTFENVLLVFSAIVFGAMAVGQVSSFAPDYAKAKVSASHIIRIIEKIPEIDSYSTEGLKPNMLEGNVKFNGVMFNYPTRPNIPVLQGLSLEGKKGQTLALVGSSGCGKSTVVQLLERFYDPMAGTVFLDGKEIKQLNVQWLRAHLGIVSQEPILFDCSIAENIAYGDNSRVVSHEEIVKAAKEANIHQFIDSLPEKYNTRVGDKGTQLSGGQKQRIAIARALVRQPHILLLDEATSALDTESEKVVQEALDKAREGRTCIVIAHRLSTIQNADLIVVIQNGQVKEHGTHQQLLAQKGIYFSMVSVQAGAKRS

Activity [1]: inducer [Decrease]
Activity [2]: inducer [Decrease]
Activity [3]: inducer [+]
Activity (Bile salt export pump [4]): inducer [Decrease]
Activity [5]: inducer [+]
Activity [6]: inducer [Decrease]
Activity [7]: inducer [+]
Activity (Bile salt export pump [8]): inducer [Decrease]
SMILES: CCCCCCCCCCCCCC(=O)OC(CCCCCCCCCCC)CC(=O)OC1C(NC(=O)CC(CCCCCCCCCCC)OC(=O)CCCCCCCCCCC)C(OC2CC(OC(=O)CC(O)CCCCCCCCCCC)C(NC(=O)CC(O)CCCCCCCCCCC)C(O)O2)OC(CO)C1OP(=O)(O)O (stereo not drawn)

Source: ChEMBL document CHEMBL2074103, “Up-regulation of the multidrug resistance genes, Mrp1 and Mdr1b, and down-regulation of the organic anion transporter, Mrp2, and the bile salt transporter, Spgp, in endotoxemic rat liver” (Hepatology, 1998)
